Where a name gives a salt, the structure may show the parent alone. Read-outs that look alike come from different tables or passages of the source.
Assays:
[1] = test system: E. coli S30 extract (bacterial protein synthesis); test: E. coli S30 extract coupled transcription-translation luciferase assay (inhibition of bacterial protein synthesis); assay type: biochemical; details: read-out: S30 IC50 (μM/% inhib.)
Outline: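 Luminescent read-out of luciferase made from pBESTluc DNA by E. coli S30 extract after 1 h at 37 °C with compound in an 8-point 2-fold series. Background came from no-DNA reactions. Percent inhibition was calculated against water-only controls.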

P. aeruginosa (Pa) = test: Broth microdilution minimum inhibitory concentration (MIC); assay type: cell-based; details: for MIC: Pseudomonas aeruginosa, read-out: Pa MIC + bicarb
Outline: (§1)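 MICs were run in triplicate per CLSI microdilution (modified, 8 dilution steps), inoculating 5×10^4 CFU/well prepared from colonies grown at 35±2° C to 0.5 McFarland. Media: CAMHB alone, with 6.25 or 25 mM final sodium bicarbonate, or with 0–50% heat-inactivated human serum.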

E. faecalis (Ef) = test: as above; assay type: cell-based; details: for MIC: Enterococcus faecalis, read-out: Ef + bicarb MIC
Outline: as §1

E. coli (Ec) = test: as above; assay type: cell-based; details: for MIC: Escherichia coli, read-out: E. coli + bicarb MIC
Outline: as §1

A. baumannii (Ab) = test: as above; assay type: cell-based; details: for MIC: Acinetobacter baumannii, read-out: Ab + bicarb MIC
Outline: as §1

S. aureus (Sa) = test: as above; assay type: cell-based; details: for MIC: Staphylococcus aureus, read-out: Sa + bicarb MIC
Outline: as §1

[2] = molecular target: Rabbit Reticulocyte Lysate (eukaryotic protein synthesis); test: Rabbit reticulocyte lysate luciferase assay (inhibition of eukaryotic protein synthesis); assay type: biochemical; details: read-out: Rabbit reticulocyte IC50 (μM/% inhib.)
Outline: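 Compounds were tested in 8-point 2-fold dilution series for blocking luciferase synthesis in nuclease-treated rabbit reticulocyte lysate (30° C., 90 minutes). Luminescence read-out, corrected by no-RNA background, was expressed as % inhibition against water-only reactions.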

[3] = class by IC50 or % inhibition @ 1 μM
[4] = P. aeruginosa, growth medium with sodium bicarbonate
[5] = E. faecalis, growth medium with sodium bicarbonate
[6] = E. coli, growth medium with sodium bicarbonate
[7] = A. baumannii, growth medium with sodium bicarbonate
[8] = S. aureus, growth medium with sodium bicarbonate
[9] = P. aeruginosa, growth medium supplemented with sodium bicarbonate
[10] = E. faecalis, growth medium supplemented with sodium bicarbonate
[11] = E. coli, growth medium supplemented with sodium bicarbonate
[12] = A. baumannii, growth medium supplemented with sodium bicarbonate
[13] = S. aureus, growth medium supplemented with sodium bicarbonate

With `CC(C)(N)C(=O)N1CCN(C(=O)Nc2ccn(-c3ccc(CNC4CCC(N)CC4)c(Cl)c3)c(=O)n2)CC1` (stereo not drawn) [Compound 271] as the compound, how does the IC50 [1, 3] read?
Its IC50 is less than 0.5 µM.

And the MIC (P. aeruginosa (Pa); [4])?
Its MIC is greater than 32 µg/mL.

What about the MIC (E. faecalis (Ef); [5]) of the same compound?
Its MIC is less than 8 µg/mL.

And the MIC (E. coli (Ec); [6])?
The MIC was less than 8 µg/mL.

And the MIC (A. baumannii (Ab); [7])?
The MIC was greater than 32 µg/mL.

What about the MIC (S. aureus (Sa); [8]) of the same compound?
The MIC was less than 8 µg/mL.

And the IC50 [2, 3]?
Its IC50 is greater than 1 µM.

`C[C@@H]1CN(C(=O)C(C)(C)N)CCN1C(=O)Nc1ccn(-c2ccc(CN3CCC(N)CC3)cc2)c(=O)n1` [Compound 61] was tested. Which IC50 [1, 3] did it give?
Its IC50 is less than 0.5 µM.

What about the MIC (P. aeruginosa (Pa); [9]) of the same compound?
Its MIC is greater than 32 µg/mL.

What about the MIC (E. faecalis (Ef); [10]) of the same compound?
The MIC was 8 to 32 µg/mL.

What about the MIC (E. coli (Ec); [11]) of the same compound?
Its MIC is less than 8 µg/mL.

What about the MIC (A. baumannii (Ab); [12]) of the same compound?
The MIC was greater than 32 µg/mL.

What about the MIC (S. aureus (Sa); [13]) of the same compound?
Its MIC is less than 8 µg/mL.

And the IC50 [2, 3]?
The IC50 was greater than 1 µM.

For `CC(C)(N)C(=O)N1CCN(C(=O)Nc2ccn(-c3ccc(CNCC4CNC4)cc3)c(=O)n2)CC1` [Compound 374], which IC50 ([1]; % inhibition @ 1 μM) is on record?
The IC50 was less than 0.5 µM.

What about the MIC (P. aeruginosa (Pa); [4]) of the same compound?
Its MIC is greater than 32 µg/mL.

And the MIC (E. faecalis (Ef); [5])?
The MIC was 8 to 32 µg/mL.

What about the MIC (E. coli (Ec); [6]) of the same compound?
The MIC was less than 8 µg/mL.

What about the “Ab + bicarb MIC” value (A. baumannii (Ab); [7]) of the same compound?
Its value is “+ (An MIC value (μg/mL) that is 32 μg/mL or greater)”.

What about the MIC (S. aureus (Sa); [8]) of the same compound?
Its MIC is 8 to 32 µg/mL.

And the IC50 ([2]; % inhibition @ 1 μM)?
Its IC50 is greater than 1 µM.

Which results are given for `C[C@@H]1CCN(CCc2ccc(-n3ccc(NC(=O)N4CCN(C(=O)[C@](C)(N)CO)CC4)nc3=O)cc2)CC[C@H]1N` (stereo in doubt) [Compound 28]?
IC50 [1, 3]: < 0.5 µM; MIC (P. aeruginosa (Pa); [9]): > 32 µg/mL; MIC (E. faecalis (Ef); [10]): < 8 µg/mL; MIC (E. coli (Ec); [11]): < 8 µg/mL; MIC (A. baumannii (Ab); [12]): > 32 µg/mL; MIC (S. aureus (Sa); [13]): < 8 µg/mL; IC50 [2, 3]: > 1 µM

`C[C@](N)(CO)C(=O)N1CCN(C(=O)Nc2ccn(-c3ccc(CN4CC(CCN)C4)cc3)c(=O)n2)CC1` [Compound 136] was tested. Which IC50 [1, 3] did it give?
The IC50 was less than 0.5 µM.

What about the MIC (P. aeruginosa (Pa); [9]) of the same compound?
Its MIC is greater than 32 µg/mL.

And the MIC (E. faecalis (Ef); [10])?
Its MIC is 8 to 32 µg/mL.

What about the MIC (E. coli (Ec); [11]) of the same compound?
The MIC was 8 to 32 µg/mL.

And the MIC (A. baumannii (Ab); [12])?
Its MIC is greater than 32 µg/mL.

What about the MIC (S. aureus (Sa); [13]) of the same compound?
The MIC was 8 to 32 µg/mL.

What about the IC50 [2, 3] of the same compound?
Its IC50 is greater than 1 µM.

For `NC1CCCN(CCc2ccc(-n3ccc(NC(=O)N4CCC5(CC4)CNC5)nc3=O)cc2)CC1` (stereo not drawn) [Compound 192], which IC50 [1, 3] is on record?
Its IC50 is greater than 1 µM.

What about the MIC (P. aeruginosa (Pa); [4]) of the same compound?
The MIC was greater than 32 µg/mL.

And the MIC (E. faecalis (Ef); [5])?
The MIC was 8 to 32 µg/mL.

What about the MIC (E. coli (Ec); [6]) of the same compound?
The MIC was less than 8 µg/mL.

What about the MIC (A. baumannii (Ab); [7]) of the same compound?
The MIC was greater than 32 µg/mL.

And the MIC (S. aureus (Sa); [8])?
The MIC was less than 8 µg/mL.

What about the IC50 [2, 3] of the same compound?
The IC50 was greater than 1 µM.

With `CC(C)(N)C(=O)N1CCN(C(=O)Nc2ccn(-c3ccc(CN4CCC(C5CNC5)CC4)cc3)c(=O)n2)CC1` [Compound 370, hydrochloride salt] as the compound, how does the IC50 ([1]; % inhibition @ 1 μM) read?
Its IC50 is less than 0.5 µM.

And the MIC (P. aeruginosa (Pa))?
The MIC was greater than 32 µg/mL.

What about the MIC (E. faecalis (Ef)) of the same compound?
Its MIC is less than 8 µg/mL.

And the MIC (E. coli (Ec))?
The MIC was less than 8 µg/mL.

What about the MIC (A. baumannii (Ab)) of the same compound?
The MIC was greater than 32 µg/mL.

What about the MIC (S. aureus (Sa)) of the same compound?
Its MIC is less than 8 µg/mL.

What about the IC50 ([2]; % inhibition @ 1 μM) of the same compound?
Its IC50 is greater than 1 µM.

`CC(C)(N)C(=O)N1CCN(C(=O)Nc2ccn(-c3ccc(C[C@H](N)C(=O)N4CCCC(N)CC4)cc3)c(=O)n2)CC1` (stereo partly drawn) [Compound 148] was tested. Which IC50 [1, 3] did it give?
The IC50 was less than 0.5 µM.

What about the MIC (P. aeruginosa (Pa); [9]) of the same compound?
The MIC was greater than 32 µg/mL.

And the MIC (E. faecalis (Ef); [10])?
Its MIC is greater than 32 µg/mL.

And the MIC (E. coli (Ec); [11])?
Its MIC is greater than 32 µg/mL.

And the MIC (A. baumannii (Ab); [12])?
The MIC was greater than 32 µg/mL.

What about the MIC (S. aureus (Sa); [13]) of the same compound?
Its MIC is greater than 32 µg/mL.

What about the IC50 [2, 3] of the same compound?
The IC50 was greater than 1 µM.

`CC(COc1ccc(-n2ccc(NC(=O)N3CCN(C(=O)C(C)(C)N)CC3)nc2=O)cc1)N1CC[C@@H](CN)C1` (stereo partly drawn) [Compound 186] was tested. Which IC50 [1, 3] did it give?
The IC50 was less than 0.5 µM.

And the MIC (P. aeruginosa (Pa); [4])?
Its MIC is greater than 32 µg/mL.

What about the MIC (E. faecalis (Ef); [5]) of the same compound?
Its MIC is 8 to 32 µg/mL.

What about the MIC (E. coli (Ec); [6]) of the same compound?
Its MIC is less than 8 µg/mL.

And the MIC (A. baumannii (Ab); [7])?
Its MIC is greater than 32 µg/mL.

And the MIC (S. aureus (Sa); [8])?
The MIC was less than 8 µg/mL.

What about the IC50 [2, 3] of the same compound?
Its IC50 is greater than 1 µM.

Which IC50 [1, 3] does the source give for `CCN(C(C)Cc1ccc(-n2ccc(NC(=O)N3CCN(C(=O)C(C)(C)N)CC3)nc2=O)cc1)C1CCC(N)CC1` (stereo not drawn) [Compound 282] here?
The IC50 was greater than 1 µM.

What about the “Pa MIC + bicarb” value (P. aeruginosa (Pa); [4]) of the same compound?
The value was “+ (An MIC value (μg/mL) that is 32 μg/mL or greater)”.

And the “Ef + bicarb MIC” value (E. faecalis (Ef); [5])?
The value was “+ (An MIC value (μg/mL) that is 32 μg/mL or greater)”.

And the “E. coli + bicarb MIC” value (E. coli (Ec); [6])?
The value was “+++ (An MIC value (μg/mL) that is less than 8 μg/mL)”.

And the “Ab + bicarb MIC” value (A. baumannii (Ab); [7])?
The value was “+ (An MIC value (μg/mL) that is 32 μg/mL or greater)”.

What about the “Sa + bicarb MIC” value (S. aureus (Sa); [8]) of the same compound?
Its value is “+++ (An MIC value (μg/mL) that is less than 8 μg/mL)”.

And the IC50 [2, 3]?
Its IC50 is greater than 1 µM.

With `CC(C)(N)C(=O)N1CCN(C(=O)Nc2ccn(-c3ccc(C(N)C(=O)NC4CNC4)cc3)c(=O)n2)CC1` (stereo not drawn) [Compound 145] as the compound, how does the IC50 [1, 3] read?
The IC50 was 0.5 to 1 µM.

What about the MIC (P. aeruginosa (Pa); [9]) of the same compound?
Its MIC is greater than 32 µg/mL.

What about the MIC (E. faecalis (Ef); [10]) of the same compound?
Its MIC is greater than 32 µg/mL.

What about the MIC (E. coli (Ec); [11]) of the same compound?
Its MIC is greater than 32 µg/mL.

And the MIC (A. baumannii (Ab); [12])?
The MIC was greater than 32 µg/mL.

What about the MIC (S. aureus (Sa); [13]) of the same compound?
The MIC was greater than 32 µg/mL.

What about the IC50 [2, 3] of the same compound?
The IC50 was greater than 1 µM.

What does the source list for `CC(Cc1ccc(-n2ccc(NC(=O)N3CCN(C(=O)C(C)(C)N)CC3)nc2=O)cc1)N[C@H]1CC[C@@H](N)C1` (stereo partly drawn) [Compound 150]?
IC50 [1, 3]: 0.5 to 1 µM; MIC (P. aeruginosa (Pa); [9]): > 32 µg/mL; MIC (E. faecalis (Ef); [10]): > 32 µg/mL; MIC (E. coli (Ec); [11]): < 8 µg/mL; MIC (A. baumannii (Ab); [12]): > 32 µg/mL; MIC (S. aureus (Sa); [13]): < 8 µg/mL; IC50 [2, 3]: > 1 µM

— patent US12503452B2 (Curza Global, LLC, priority 2019, dated 2025)
